One assay relates to C57BL/6 recipients. As to the kind of experiment: Allogeneic islet transplantation (BALB/c islets). It is filed as in vivo, mouse. The protocol: Islets were hand-picked 3-4 times under the dissecting scope before islets were free of exocrine tissue, vessels, lymph nodes and ducts and ready for transplantation.
Four hundred islets were placed in Hamilton syringe and transplanted under the left kidney capsule of each diabetic recipient mouse. Recipients were rendered diabetic with a single i.p. dose of streptozotocin (200 mg/kg; Sigma, St. Louis, Mo.) 1 wk before transplantation. Blood glucose level was measured by One Touch Profile glucose monitor system (Lifescan, Milpitas, Calif.). […] Allograft function was monitored by serial blood glucose measurements. […] All injections were given i.p.
Kidneys bearing grafts were removed, fixed in 10% formalin and embedded in paraffin. Serial sections of graft area were cut and stained with hematoxylin and eosin. For insulin staining, sections were stained by immunoperoxidase method using 1:100 dilution of polyclonal guinea pig anti-insulin antibody (Gpx Insulin, Dako, Carpinteria, Calif.) and 1:100 dilution of secondary antibody conjugated to horse radish peroxidase (Guinea Pig Immunoglobulins HRP, Dako, Carpinteria, Calif.). Sections were briefly counterstained with hematoxylin and mounted for light microscopic examination.

In another assay the test system is C57BL/6 male mice. As to the kind of experiment: Low-dose streptozotocin (LDSTZ) diabetes model. It is filed as in vivo, mouse. To be noted: 100 mg/kg daily i.p. How it is done:
C57BL/6 male mice or JAK3-deficient and WT mice (8-10-wk-old) were injected intraperitoneally with low-dose (40 mg/kg ) of STZ (Sigma, St Louis, Mo.) daily for 5 consecutive days, for induction of autoimmune experimental diabetes (LDSTZ). STZ was dissolved in citrate buffer pH 4.0 on ice, and injected within 10 min of preparation. Mice were monitored for diabetes development by testing blood glucose from the second week (day 7) after the STZ administrations by One Touch Profile diabetes tracking system (Lifescan, Milpitas, Calif.). Mice with glycemia over 220 mg/dl on three consecutive tests were considered diabetic, with the first detection of chronic glycemia taken as the date of diabetes onset. A group of C57BL/6 males was treated with WHI-P131-100 mg/kg/day, i.p., devided in two equal doses, from a beggining of the experiment till day 25.

A further assay deals with T1, human JAK3 (Homo sapiens, UniProt P52333).
T1 sequence (P52333 1-1124): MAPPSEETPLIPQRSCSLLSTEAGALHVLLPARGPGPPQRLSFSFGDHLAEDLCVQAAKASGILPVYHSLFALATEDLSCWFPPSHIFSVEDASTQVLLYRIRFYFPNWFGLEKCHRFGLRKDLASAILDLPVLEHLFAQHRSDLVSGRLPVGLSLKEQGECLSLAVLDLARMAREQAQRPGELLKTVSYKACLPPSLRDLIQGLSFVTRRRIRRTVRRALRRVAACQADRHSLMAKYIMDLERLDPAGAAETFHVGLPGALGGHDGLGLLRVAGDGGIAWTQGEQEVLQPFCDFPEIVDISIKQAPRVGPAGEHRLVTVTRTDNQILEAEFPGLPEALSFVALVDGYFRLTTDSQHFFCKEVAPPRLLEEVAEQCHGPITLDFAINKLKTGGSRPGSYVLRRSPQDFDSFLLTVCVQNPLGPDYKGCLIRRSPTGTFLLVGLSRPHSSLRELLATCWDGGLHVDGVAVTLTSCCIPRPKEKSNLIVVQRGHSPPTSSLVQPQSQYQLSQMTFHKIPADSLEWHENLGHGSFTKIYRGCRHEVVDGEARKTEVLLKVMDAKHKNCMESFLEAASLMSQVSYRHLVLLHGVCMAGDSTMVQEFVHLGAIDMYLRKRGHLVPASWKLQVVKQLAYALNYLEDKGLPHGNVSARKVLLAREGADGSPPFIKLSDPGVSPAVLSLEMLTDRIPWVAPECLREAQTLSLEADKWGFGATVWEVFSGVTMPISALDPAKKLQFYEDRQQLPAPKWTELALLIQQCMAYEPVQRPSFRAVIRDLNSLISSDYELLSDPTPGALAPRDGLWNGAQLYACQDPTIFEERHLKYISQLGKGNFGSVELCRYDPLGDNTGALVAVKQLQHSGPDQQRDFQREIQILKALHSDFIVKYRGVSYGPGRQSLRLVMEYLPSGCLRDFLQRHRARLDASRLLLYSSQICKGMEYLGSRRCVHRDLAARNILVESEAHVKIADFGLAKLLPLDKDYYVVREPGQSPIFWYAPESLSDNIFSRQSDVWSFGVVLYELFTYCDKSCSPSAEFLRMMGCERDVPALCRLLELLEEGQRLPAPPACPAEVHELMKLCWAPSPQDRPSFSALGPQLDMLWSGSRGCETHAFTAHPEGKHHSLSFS
The assay can be described thus: JAK3 immune complex kinase assay (JAK3 immunoprecipitated from KL2 EBV-transformed B cell line). It is filed as biochemical. To be noted: JAK3 kinase assay, KL2 cell-derived human JAK3; read-out: IC50. How it is done: In JAK3 immune complex kinase assays (17, 22), KL-2 EBV-transformed human lymphoblastoid B cells (native JAK3 kinase assays) or insect ovary cells (recombinant JAK3 kinase assays) were lysed with NP-40 lysis buffer (50 mM Tris, pH 8, 150 mM NaCl, 5 mM EDTA, 1% NP-40, 100 μM sodium orthovanadate, 100 μM sodium molybdate, 8 μg/ml aprotinin, 5 μg/ml leupeptin, and 500 μM PMSF) and centrifuged 10 min at 13000× g to remove insoluble material. Samples were immunoprecipitated with antisera prepared against JAK3. The antisera were diluted and immune complexes collected by incubation with 15 μl protein A Sepharose. After 4 washes with NP-40 lysis buffer, the protein A Sepharose beads were washed once in kinase buffer (20 mM MOPS, pH7, 10 mM MgCl2) and resuspended in the same buffer. Reactions were initiated by the addition of 25 μCi [γ^32P] ATP (5000 Ci/mMole) and unlabeled ATP to a final concentration of 5 μM. Reactions were terminated by boiling for 4 min in SDS sample buffer. Samples were run on 9.5% SDS polyacrylamide gels and labeled proteins were detected by autoradiography. Following electrophoresis, kinase gels were dried onto Whatman 3M filter paper and subjected to phosphorimaging on a Molecular Imager (Bio-Rad, Hercules, Calif.) as well as autoradiography on film. For each drug concentration, a kinase activity index (KA) was determined by comparing the kinase activity in phosphorimager units (PIU) to that of the baseline sample. In some experiments, cold kinase assays were performed, as described by (Uckun, F. M., et al., Clin. Can. Res. 4: 901-912, 1998).
We first used immune complex kinase assays to compare the effects of the synthesized dimethoxyquinazoline compounds on the enzymatic activity of human JAK3 immunoprecipitated from the KL2 EBV-transformed human lymphoblastoid B cell line.

As to `COc1cc2ncnc(Nc3ccc(O)cc3)c2cc1OC` [WHI-P131, 4-(4′-hydroxyl-phenyl)-amino-6,7-dimethoxyquinazoline], the “islet allograft mean survival time (MST)” value is recorded as 24.7±3.4 days in the assay on C57BL/6 recipients (50 mg/kg daily i.p., controls 14.1±0.9) and 25.3±3.8 days in the assay on C57BL/6 recipients (75 mg/kg daily i.p.). Also, the figures for the diabetic mice with C57BL/6 male mice (day 7 post first STZ injection), in the assay with C57BL/6 male mice (day 9) and in the assay on C57BL/6 male mice (day 11) were 20%, 50% and 65%, respectively. At human JAK3, the IC50 (as a rule, the midpoint of a concentration-inhibition curve) was determined as 9.1 µM.

These data come from US6469013B2, “Therapeutic compounds” (Parker Hughes Institute, priority 1998, dated 2002).
